Assay results taken from paper PMC10298275, “Antiproliferative Activity and Impact on Human Gut Microbiota of New O-Alkyl Derivatives of Naringenin and Their Oximes” (International Journal of Molecular Sciences, 2023).
In brackets after ≈: the same amount, converted by molar mass. Entries after “also recorded” stand apart in the source; their conditions may differ. Read-outs that look alike come from different tables or passages of the source. Each block holds one compound with its values, some of them ahead of it.

Columns and labels:
SRB assay, cytotoxicity [1] = assay type: cell-based, mouse; conditions: mouse, 3T3-L1 cells; 3T3-L1, SRB, 24 h exposure, three independent repeats; read-out: Cytotoxicity (IC50 ± SD)
Description: (§1) The HT-29 cells (ATCC, Manassas, VA, USA) were cultured within α-MEM (IIET PAS, Wrocław, Poland) supplemented with 10% fetal bovine serum (Sigma, St. Louis, MO, USA), antimycotic (100 μg/mL penicillin, 100 μg/mL streptomycin and 0.25 μg/mL amphotericin) (Sigma) and 2 mM glutamine (Sigma). The 3T3-L1 cells (ATCC, Manassas, VA, USA) were cultivated using DMEM high-glucose medium (IIET PAS, Wrocław, Poland) supplemented as above. Both cell lines were cultured at 37 °C in an atmosphere of 5% CO2.
(§2) The sulforhodamine B (SRB) assay was performed according to a previously published protocol. Briefly, 1 × 10^4 HT-29 or 5 × 10^3 3T3-L1 cells were seeded into 96-well plates. After attaching to the plate surface, the cells were incubated with 100, 75, 50, 25, 10 or 1 µg/mL of the investigated compounds for 24 h. After this time, proteins were precipitated with trichloroacetic acid and stained with SRB. The absorbance was measured at 560 nm using a GloMax Discover Microplate Reader (Promega, Madison, WI, USA).

SRB assay, cytotoxicity [2] = assay type: cell-based, human; conditions: human, HT-29 cells; HT-29, SRB, 24 h exposure, three independent repeats; read-out: Cytotoxicity (IC50 ± SD)
Description: as §1, §2

HT-29 cells [3] = test: RealTime-Glo Annexin V Apoptosis and Necrosis Assay; assay type: cell-based, human
Description: The process of apoptosis was determined using the RealTime-Glo Annexin V Apoptosis and Necrosis Assay (Promega) according to the manufacturer’s protocol. Briefly, 1 × 10^4 HT-29 cells were seeded into a single well of a 96-well plate. After overnight incubation, the cells were treated with 10, 25, 50 and 100 µg/mL of the investigated compounds and detection reagent for 24 h. As a negative control, untreated cells were used. The luminescence, fluorescence and OD525 signals were detected at each hour of the first 12 h of incubation. The end measurement was performed at the 24th hour of the experiment. All samples were prepared in triplicate, and then their means were calculated.

Escherichia coli K12 [4] = test: MIC, microdilution method; assay type: cell-based; conditions: E. coli K12, MHB, 18 h, 37 °C, tested 512 to 1 µg/mL
Description: (§3) Non-pathogenic reference strains representing the intestinal microbiome were used for the studies: Escherichia coli K12, Staphylococcus aureus ATCC 25923 and Enterococcus faecalis ATCC 29212. All strains were obtained from the collection of the Department of Microbiology at the Medical University of Wrocław.
(§4) The strains were received from the museum (−80 °C) and grown in tryptic soy broth (TSB, OXOID, Basingstoke, UK) under continuous shaking conditions (MaxQTM6000 incubator shaker, Thermo Scientific, Waltham, MA, USA) at 125 rpm at 37 °C. Then, they were moved to the growth media, namely tryptic soy agar (TSA, OXOID, Basingstoke, UK) and MacConkey agar (MC, Millipore, Darmstadt, Germany) for S. aureus or E. faecalis and E. coli, respectively.
(§5) A fresh 18–24 h culture was used for each study. For this purpose, a culture with a density of 1.5 × 10^8 CFU/mL in Mueller–Hinton broth (MHB, OXOID, Basingstoke, UK) was prepared and used for further microdilution studies.
(§6) The antimicrobial activity of the O-alkyl derivatives of naringenin and their oximes was tested in vitro using the microdilution method, showing the minimum inhibitory concentration (MIC), in accordance with the recommendations of the European Antimicrobial Susceptibility Testing Committee EUCAST [44]. MICs were determined in 96-well microdilution plates. The tests were carried out in MHB medium. The O-alkyl derivatives of naringenin and their oximes were tested in the concentration range of 512 to 1 µg/mL in a geometric process in MHB medium. The final concentration of the test strains in each test well was 5 × 10^5 CFU/mL. MICs were read after 18 h (for E. coli and S. aureus) and 24 h (for E. faecalis) incubation at 37 °C.
(§7) A strain growth control (tested strain in medium), background control for tested compounds (naringenin derivatives in MHB), medium control (only pure MHB) and compound solvent control (DMSO at test compound concentration, strain and MHB) were set for each experiment. Each test was set up with three independent experiments, each as three separate replicates.
(§8) The […], OD600, was measured in a plate reader (ASYS UVM340, BIOCHROM Ltd., Cambridge, UK). The background control of the tested compounds and the clean medium were included in the absorbance results.

[5] = tested on: Enterococcus faecalis ATCC 29212; test: MIC, microdilution method; assay type: cell-based; conditions: E. faecalis ATCC 29212, MHB, 24 h, 37 °C, tested 512 to 1 µg/mL
Description: as §3, §4, §5, §6, §7, §8

[6] = tested on: Staphylococcus aureus ATCC 25923; test: MIC, microdilution method; assay type: cell-based; conditions: S. aureus ATCC 25923, MHB, 18 h, 37 °C, tested 512 to 1 µg/mL
Description: as §3, §4, §5, §6, §7, §8

[7] = tested on: caspase 3/7 in HT-29 cells; test: Caspase-Glo 3/7 Assay; assay type: cell-based, human; conditions: HT-29, 50 µg/mL
Description: The activity of two effector caspases 3 and 7 was analyzed using the Caspase-Glo 3/7 Assay (Promega) according to the recommendations of the manufacturer. The cells were seeded at a density of 1 × 10^4 per well for the test on a 96-well plate. Then, cells were incubated with A2, B2, A9, B9 and NG at a concentration of 50 µg/mL for 48 h. Half an hour before each measurement of caspase activity, an equal volume of Caspase-Glo 3/7 substrate solution was added to cells. The luminescence signals were detected using a GloMax Discover Microplate Reader at the 6th, 12th, 24th and 48th hours of the experiment. The reactions for each sample were repeated in triplicate and presented as the mean value.

Escherichia coli K12 [8] = test: MBC assay; assay type: cell-based; conditions: E. coli K12
Description: (§9) The minimum bactericidal concentration (MBC) was tested for all naringenin derivatives. First, 10 µL of medium was taken from the plate, on which the MIC was determined for the MIC value, the value below and the two values above. This volume was transferred to TSA or MC agar. After 18–24 h (depending on strain) incubation at 37 °C, colonies were counted. The concentration of test compounds at which no bacterial growth was observed was defined as the MBC value. Each experiment was repeated 3 times.

[9] = tested on: Enterococcus faecalis ATCC 29212; test: MBC assay; assay type: cell-based; conditions: E. faecalis ATCC 29212
Description: as §9

[10] = tested on: Staphylococcus aureus ATCC 25923; test: MBC assay; assay type: cell-based; conditions: S. aureus ATCC 25923
Description: as §9

HT-29 cells [11] = test: MTT assay, cell viability; assay type: cell-based, human; conditions: HT-29, MTT, 24 h
Description: as §1
First, 1 × 10^4 HT-29 cells or 5 × 10^3 3T3-L1 cells were seeded into a 96-well plate and incubated for one night. Then, cells were treated with different concentrations of the investigated compounds within 24 h. Afterwards, the medium was replaced with a fresh medium containing 0.5 mg/mL of 3-(4,5-dimethylthiazol-2-yl)-2,5-diphenyl-2H-tetrazolium bromide (MTT, Sigma) and incubated for 2 h at 37 °C. After removing the medium, the formazan salts were dissolved in dimethyl sulfoxide (DMSO, Sigma), and the absorbance of the solution was measured at 560 nm using a plate reader.

3T3-L1 cells = test: SRB assay, cytotoxicity; assay type: cell-based, mouse; conditions: 3T3-L1, SRB, 24 h exposure, three independent repeats
Description: as §1, §2

HT-29 cells [12] = tested on: HT-29 cells; parameters: method as in earlier work; conditions: ref 29 (Kocyigit et al.); cited from earlier work
HT-29 cells [13] = test: SRB assay, cytotoxicity; assay type: cell-based, human; conditions: HT-29, SRB, 24 h exposure, three independent repeats
Description: as §1, §2

melting point: 171 to 173 °C | MIC (Escherichia coli K12 [4]; Escherichia coli, read-out: MIC): > 512 µg/mL | MIC ([5]; Enterococcus faecalis, ATCC29212, read-out: MIC): 256 µg/mL (≈ 580 µM) | MIC [6]: >512 (>512) µg/mL | MIC ([6]; Staphylococcus aureus, ATCC25923, read-out: MIC): > 512 µg/mL
Structure (SMILES): CCCCCCCCCCCOc1cc(O)c2c(c1)O[C@H](c1ccc(O)cc1)CC2=NO [B9, 7-O-Undecylnaringenin oxime]
IC50 at 24 h (SRB assay, cytotoxicity [1]): 6.74 ± 0.84 µg/mL (≈ 15.3 µM) | IC50 at 24 h (SRB assay, cytotoxicity [2]): 11.4 ± 1.17 µg/mL (≈ 25.9 µM) | onset of loss of membrane integrity (fluorescence signal), time shift with respect to luminescence (HT-29 cells [3]; HT-29, 50 µg/mL): more than 5 h | phosphatidylserine exposure (luminescent signal) on the outer side of the cell membrane (HT-29 cells [3]; HT-29, 50 µg/mL): significantly increased; also recorded: increased the level of phosphatidylserine | time of caspase 3/7 activation [7]: ≤ 12 h | caspase 3/7 activation ([7]; measured at 6, 12, 24 and 48 h): rapid activation of caspase 3/7 | MBC (Escherichia coli K12 [8]; Escherichia coli, read-out: MBC): > 512 µg/mL | MBC ([9]; Enterococcus faecalis, ATCC29212, read-out: MBC): > 512 µg/mL | MBC ([10]; Staphylococcus aureus, ATCC25923, read-out: MBC): > 512 µg/mL | reduction in cell viability (HT-29 cells [11]; 10 µg/mL dose): more than 50%

Structure (SMILES): O/N=C1\CC(c2ccc(O)cc2)Oc2cc(O)cc(O)c21 (centres unmarked) [NGOX, naringenin oxime, reference compound]
Cytotoxicity (IC50 ± SD) (3T3-L1 cells): 29.18 ± 2.00 µg/mL | IC50 (HT-29 cells [12]): 175 µg/mL (≈ 609 µM) | Cytotoxicity (IC50 ± SD) (HT-29 cells [13]): >100 µg/mL | annexin V luminescence and necrosis fluorescence signals versus untreated cells (HT-29 cells [3]; HT-29, during 12 h incubation, applied concentrations 10-100 µg/mL): both signals were similar to those for untreated cells | MIC (Escherichia coli K12 [4]): 512 µg/mL (≈ 1780 µM) | MIC [5]: 512 µg/mL (≈ 1780 µM) | MIC [6]: > 512 µg/mL | MBC (Escherichia coli K12 [8]): > 512 µg/mL | MBC [9]: > 512 µg/mL | MBC [10]: > 512 µg/mL | reduction in cell viability (HT-29 cells [11]; 100 µg/mL): more than 50%
